Laboratory results taken from ChEMBL document CHEMBL1201862, “PubChem BioAssay data set” (2004).
Activity calls are given as the source filed them. No rule for the calls is given here.

Target: T1, Exodeoxyribonuclease V (Escherichia coli (strain K12), UniProt P04993+P07648+P08394)
T1 sequence (P04993 whole entry): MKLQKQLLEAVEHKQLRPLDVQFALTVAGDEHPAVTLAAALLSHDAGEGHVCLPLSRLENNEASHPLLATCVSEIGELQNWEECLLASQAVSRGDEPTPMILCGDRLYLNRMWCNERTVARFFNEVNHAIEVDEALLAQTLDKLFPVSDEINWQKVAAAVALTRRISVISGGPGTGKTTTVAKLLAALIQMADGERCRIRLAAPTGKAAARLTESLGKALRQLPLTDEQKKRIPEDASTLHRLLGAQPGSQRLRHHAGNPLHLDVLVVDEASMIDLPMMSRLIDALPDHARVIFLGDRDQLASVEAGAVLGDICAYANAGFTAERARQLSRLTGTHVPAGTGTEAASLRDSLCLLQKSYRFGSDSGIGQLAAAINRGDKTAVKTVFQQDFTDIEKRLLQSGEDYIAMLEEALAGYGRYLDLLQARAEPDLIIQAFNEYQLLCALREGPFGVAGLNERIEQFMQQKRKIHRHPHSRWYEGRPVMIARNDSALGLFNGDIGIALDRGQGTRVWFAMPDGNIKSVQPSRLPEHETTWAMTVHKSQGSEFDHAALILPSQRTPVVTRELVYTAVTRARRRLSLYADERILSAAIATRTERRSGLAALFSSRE
T1 sequence (P07648 whole entry): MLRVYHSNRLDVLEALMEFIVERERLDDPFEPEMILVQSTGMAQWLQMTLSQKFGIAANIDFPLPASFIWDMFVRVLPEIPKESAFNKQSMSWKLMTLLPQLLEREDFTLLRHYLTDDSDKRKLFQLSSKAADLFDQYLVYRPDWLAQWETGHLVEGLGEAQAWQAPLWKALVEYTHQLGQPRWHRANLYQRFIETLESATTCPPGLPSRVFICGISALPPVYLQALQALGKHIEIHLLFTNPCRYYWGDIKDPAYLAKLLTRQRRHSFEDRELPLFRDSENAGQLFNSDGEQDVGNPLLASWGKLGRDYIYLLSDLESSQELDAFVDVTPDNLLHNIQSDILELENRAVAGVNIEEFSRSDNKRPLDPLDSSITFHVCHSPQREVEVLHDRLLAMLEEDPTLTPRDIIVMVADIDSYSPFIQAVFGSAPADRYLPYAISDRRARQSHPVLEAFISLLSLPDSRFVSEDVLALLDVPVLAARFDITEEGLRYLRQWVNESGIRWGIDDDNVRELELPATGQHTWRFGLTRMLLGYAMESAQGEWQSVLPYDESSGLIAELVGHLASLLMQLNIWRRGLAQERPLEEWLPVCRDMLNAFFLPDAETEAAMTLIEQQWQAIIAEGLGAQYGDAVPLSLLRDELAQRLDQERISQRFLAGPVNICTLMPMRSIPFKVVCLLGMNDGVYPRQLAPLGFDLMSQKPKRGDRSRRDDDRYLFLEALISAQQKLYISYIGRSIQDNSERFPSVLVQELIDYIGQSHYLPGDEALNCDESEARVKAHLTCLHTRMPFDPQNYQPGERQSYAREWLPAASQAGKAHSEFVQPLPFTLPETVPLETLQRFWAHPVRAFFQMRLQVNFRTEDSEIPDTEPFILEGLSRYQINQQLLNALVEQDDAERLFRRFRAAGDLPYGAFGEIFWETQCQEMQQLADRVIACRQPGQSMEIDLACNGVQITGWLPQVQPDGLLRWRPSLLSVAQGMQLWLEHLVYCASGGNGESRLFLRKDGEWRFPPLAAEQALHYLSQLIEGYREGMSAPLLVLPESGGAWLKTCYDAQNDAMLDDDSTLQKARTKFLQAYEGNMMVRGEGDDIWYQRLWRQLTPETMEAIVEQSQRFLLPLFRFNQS
T1 sequence (P08394 whole entry): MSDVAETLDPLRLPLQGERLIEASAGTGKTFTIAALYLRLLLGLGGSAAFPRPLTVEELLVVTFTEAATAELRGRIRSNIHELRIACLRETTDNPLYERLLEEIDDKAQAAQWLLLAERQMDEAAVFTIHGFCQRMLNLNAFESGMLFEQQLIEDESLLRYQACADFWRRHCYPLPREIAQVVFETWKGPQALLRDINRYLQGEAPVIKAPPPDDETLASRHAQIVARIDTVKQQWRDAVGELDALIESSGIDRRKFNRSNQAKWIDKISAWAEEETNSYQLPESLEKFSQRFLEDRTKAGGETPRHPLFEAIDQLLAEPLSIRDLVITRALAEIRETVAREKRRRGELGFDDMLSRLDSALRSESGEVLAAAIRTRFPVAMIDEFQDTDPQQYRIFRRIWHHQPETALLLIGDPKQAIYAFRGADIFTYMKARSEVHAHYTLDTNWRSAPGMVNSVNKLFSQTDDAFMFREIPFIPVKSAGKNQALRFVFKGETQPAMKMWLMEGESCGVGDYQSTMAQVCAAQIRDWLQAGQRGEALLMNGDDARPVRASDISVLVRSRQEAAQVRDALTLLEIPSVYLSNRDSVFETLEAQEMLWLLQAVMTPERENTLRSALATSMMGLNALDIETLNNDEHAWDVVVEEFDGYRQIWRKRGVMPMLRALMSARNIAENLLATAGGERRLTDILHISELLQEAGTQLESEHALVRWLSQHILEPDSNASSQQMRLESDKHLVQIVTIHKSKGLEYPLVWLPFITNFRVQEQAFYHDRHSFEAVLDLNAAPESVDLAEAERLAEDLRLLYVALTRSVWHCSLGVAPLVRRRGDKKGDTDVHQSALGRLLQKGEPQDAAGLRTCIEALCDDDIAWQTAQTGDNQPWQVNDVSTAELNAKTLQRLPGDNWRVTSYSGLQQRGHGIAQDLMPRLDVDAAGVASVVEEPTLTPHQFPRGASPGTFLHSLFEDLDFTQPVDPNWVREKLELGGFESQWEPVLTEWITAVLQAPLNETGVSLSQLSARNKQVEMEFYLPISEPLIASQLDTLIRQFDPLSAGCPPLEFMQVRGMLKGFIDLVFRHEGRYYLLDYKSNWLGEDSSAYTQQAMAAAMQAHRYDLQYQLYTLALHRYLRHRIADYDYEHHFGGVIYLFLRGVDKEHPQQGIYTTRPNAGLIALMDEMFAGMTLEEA
Assay: E. coli RecBCD inhibitors, dose response, counter-screen for AddAB inhibitor project, absorbance, V66 E. coli, mutant T4 phage (AID 492957)
Format: functional, cell-based, Escherichia coli str. K-12 substr. MG1655

## CN1CCc2cc3c(c4c2[C@H]1[C@H](O)c1ccccc1-4)OCO3
  IC50: > 119 µM (inactive)
